# Patent publication EP2769723A1, “Compounds for use in inhibiting HIV capsid assembly” (priority 2013, dated 2014)
# Target: T1, CA (Human immunodeficiency virus type 1 group M subtype B, UniProt P12493)
# T1 construct: a fusion protein of CA with glutathione-S-transferase (CA-GST)
# Experiment: ALPHA screen (AlphaScreen): inhibition of CAI binding to CA
# Design: species or system HIV-1
# Conditions: CAI-biotin peptide / CA-GST; compounds screened at 0.5-100 µM; read-out: α screen IC50
# Description: The AlphaScreen experiments are performed using Perkin Elmer Enspire plate reader in white 96-well ProxiPlates and PBS supplemented with 0.05% Tween20, 2mM DTT, 2% DMSO. First, Streptavidin-coated Donor beads are used to capture the CAI-biotin peptide. In the other solution, a fusion protein of CA with glutathione-S-transferase (CA-GST) is mixed with GSH Acceptor beads. Both mixtures were incubated and then mixed together. To test the ability of prepared organic compounds to inhibit the CAI binding to CA, they are screened at concentrations between 0.5-100 µM and IC50 values are calculated from the influenced signals.
# Upon illumination by laser at 680 nm, Donor beads containing the photosensitizer phthalocyanine convert ambient oxygen to an excited form of singlet oxygen ^1O2. Singlet oxygen can within its half-life of ~ 4 µs diffuse approximately 200 nm in solution. If an Acceptor bead is within that proximity, which is mostly upon CA:CAI interaction, energy is transferred from the singlet oxygen to thioxene derivates within the Acceptor and signal at 520 - 620 nm is emitted.
row,Compound,IC50 [µM]
1,Fc1ccc(Cl)cc1Nc1nc(-c2ccncc2)nc2ccccc12 [AMR.451],15.1
2,Clc1ccc(-c2nc(Nc3cc(Cl)ccc3Cl)c3ccccc3n2)cc1 [AMR.362],> 200
3,CN(C)c1cccc(-c2nc(Nc3cc([N+](=O)[O-])ccc3F)c3ccccc3n2)c1 [AMR.508],> 200
4,O=[N+]([O-])c1cc(F)ccc1Nc1nc(-c2cccnc2)nc2ccccc12 [AMR.426],14.5
5,FC(F)(F)c1ccc(-c2nc(Nc3ccc4[nH]nnc4c3)c3ccccc3n2)cc1 [AMR.445],53.2
6,CCOC(=O)c1ccc(Nc2nc(-c3ccc(Cl)cc3)nc3ccccc23)cc1 [AMR.361],> 200
7,Cn1nnc2cc(Nc3cc(-c4cccnc4)nc4ccccc34)ccc21 [AMR.505],59.8
8,CN(C)c1ccc(Nc2nc(-c3ccc(Cl)cc3Cl)nc3ccccc23)cc1 [AMR.402],26.7
9,O=[N+]([O-])c1ccc(-c2nc(Nc3cc([N+](=O)[O-])ccc3F)c3ccccc3n2)cc1 [AMR.428],115
10,Clc1ccc(-c2nc(Nc3ccc4[nH]nnc4c3)c3ccccc3n2)c(Cl)c1 [AMR.393],2
11,c1ccc2c(Nc3ccc4[nH]nnc4c3)ncnc2c1 [AMR.476],137
12,O=[N+]([O-])c1cc(F)ccc1Nc1nc(-c2ccncc2)nc2ccccc12 [AMR.450],169
13,c1cncc(-c2nc(Nc3ccc(-n4ccnc4)cc3)c3ccccc3n2)c1 [AMR.341],31.5
14,Fc1ccc(Cl)cc1Nc1nc(-c2cccnc2)nc2ccccc12 [AMR.427],16.5
15,Cc1ccc(S(=O)(=O)NNc2nc(-c3cccnc3)nc3ccccc23)cc1 [AMR.336],119
16,O=[N+]([O-])c1ccc(O)c(Nc2nc(-c3cccnc3)nc3ccccc23)c1 [AMR.481],2.1
17,Fc1ccc(Nc2nc(-c3ccc(Cl)cc3Cl)nc3ccccc23)cc1 [AMR.397],> 200
18,CN(C)c1ccc(-c2nc(Nc3ccc4c(c3)nnn4C)c3ccccc3n2)cc1 [AMR.512],30.8
19,O=C(O)c1ccc(Nc2nc(-c3ccncc3)nc3ccccc23)c(O)c1 [AMR.462],15.2
20,Cc1ccc(S(=O)(=O)NNc2nc(-c3ccc(Cl)cc3)nc3ccccc23)cc1 [AMR.370],> 200
21,c1ccc2c(Nc3ccc4[nH]nnc4c3)nc(-c3ccncc3)nc2c1 [AMR.358],5

row,Compound,IC50 [µM]
1,COc1ccc(Nc2nc(-c3ccc(Cl)cc3Cl)nc3ccccc23)cc1OC [AMR.395],121
2,CN(C)c1ccc(Nc2nc(-c3ccc(Cl)cc3)nc3ccccc23)cc1 [AMR.368],33.7
3,O=C(O)c1ccc(Nc2nc(-c3cccnc3)nc3ccccc23)c(O)c1 [AMR.493],30
4,Cc1cccc(Nc2nc(-c3ccc(Cl)cc3)nc3ccccc23)c1C [AMR.365],> 200
5,O=[N+]([O-])c1ccc(F)c(Nc2nc(-c3ccccn3)nc3ccccc23)c1 [AMR.416],2.3
6,Cn1nnc2cc(Nc3nc(-c4ccncc4)nc4ccccc34)ccc21 [AMR.373],17.3
7,O=[N+]([O-])c1ccc(O)c(Nc2nc(-c3ccncc3)nc3ccccc23)c1 [AMR.456],10.2
8,CCOC(=O)c1ccc(Nc2nc(-c3ccc(Cl)cc3Cl)nc3ccccc23)cc1 [AMR.390],> 200
9,Cn1nc2ccc(Nc3nc(-c4ccncc4)nc4ccccc34)cc2n1 [AMR.464],97.4
10,CN(C)c1ccc(-c2nc(Nc3cc([N+](=O)[O-])ccc3F)c3ccccc3n2)cc1 [AMR.511],> 200
11,O=[N+]([O-])c1cccc(O)c1Nc1nc(-c2ccncc2)nc2ccccc12 [AMR.461],57.4
12,Cc1ccc(Nc2nc(-c3cccnc3)nc3ccccc23)c(O)c1 [AMR.484],179
13,Clc1ccc(-c2nc(NCCCn3ccnc3)c3ccccc3n2)cc1 [AMR.367],> 200
14,Cc1cccc(Nc2nc(-c3cccnc3)nc3ccccc23)c1C [AMR.334],43.2
15,Cn1nnc2cc(Nc3nc(-c4ccc(Cl)cc4)nc4ccccc34)ccc21 [AMR.374],6.6
16,Clc1ccc(-c2nc(Nc3cc(Cl)ccc3Cl)c3ccccc3n2)c(Cl)c1 [AMR.396],> 200
17,Cc1ccc(S(=O)(=O)NNc2nc(-c3ccncc3)nc3ccccc23)cc1 [AMR.356],156
18,O=[N+]([O-])c1ccc(F)c(Nc2nc(-c3ccc(Cl)cc3Cl)nc3ccccc23)c1 [AMR.391],> 200
19,c1ccc2c(Nc3ccc(-n4ccnc4)cc3)nc(-c3ccncc3)nc2c1 [AMR.359],37.5
20,CN(C)c1cccc(-c2nc(Nc3ccc4c(c3)nnn4C)c3ccccc3n2)c1 [AMR.509],> 200
21,Cc1cccc(Nc2nc(-c3ccncc3)nc3ccccc23)c1C [AMR.354],165

row,Compound,IC50 [µM]
1,Fc1ccc(Nc2nc(-c3cccnc3)nc3ccccc23)cc1 [AMR.331],44.4
2,Clc1ccc(-c2nc(NCCCn3ccnc3)c3ccccc3n2)c(Cl)c1 [AMR.392],> 200
3,CN(C)c1cccc(Nc2nc(-c3cccnc3)nc3ccccc23)c1 [AMR.379],217
4,O=[N+]([O-])c1ccc(F)c(Nc2nc(-c3ccncc3)nc3ccccc23)c1 [AMR.348],7.2
5,O=[N+]([O-])c1ccc(F)c(Nc2nc(-c3ccc(C(F)(F)F)cc3)nc3ccccc23)c1 [AMR.444],> 200
6,O=[N+]([O-])c1ccc(F)c(Nc2nc(-c3cccnc3)nc3ccccc23)c1 [AMR.335],6.5
7,O=[N+]([O-])c1cccc(O)c1Nc1nc(-c2cccnc2)nc2ccccc12 [AMR.492],19.7
8,Cn1nnc2cc(Nc3nc(-c4ccccn4)nc4ccccc34)ccc21 [AMR.421],33.7
9,O=[N+]([O-])c1cc(Nc2nc(-c3ccncc3)nc3ccccc23)ccc1F [AMR.449],2.9
10,CNc1ccc([N+](=O)[O-])cc1Nc1nc(-c2ccncc2)nc2ccccc12 [AMR.466],4.7
11,Cn1nnc2cc(Nc3nc(-c4ccc(C(F)(F)F)cc4)nc4ccccc34)ccc21 [AMR.446],28.2
12,COc1ccc(Nc2nc(-c3ccncc3)nc3ccccc23)cc1OC [AMR.350],> 200
13,Clc1ccc(-c2nc(Nc3ccc4[nH]nnc4c3)c3ccccc3n2)cc1 [AMR.3 71],5
14,Fc1ccc(Nc2nc(-c3ccc(Cl)cc3)nc3ccccc23)cc1 [AMR.364],> 200
15,Cn1nnc2cc(Nc3nc(-c4cccnc4)nc4ccccc34)ccc21 [AMR.372],6.4
16,Cn1nnc2cc(Nc3nc(-c4ccc(Cl)cc4Cl)nc4ccccc34)ccc21 [AMR.401],41.8
17,Cc1ccnc(Nc2nc(-c3ccncc3)nc3ccccc23)c1 [AMR.355],25
18,O=[N+]([O-])c1ccc(-c2nc(Nc3ccc4[nH]nnc4c3)c3ccccc3n2)cc1 [AMR.429],2.4
19,Cc1ccc(Nc2nc(-c3ccncc3)nc3ccccc23)c(O)c1 [AMR.457],> 200
20,COc1ccc(Nc2nc(-c3cccnc3)nc3ccccc23)cc1OC [AMR.328],110
21,CN(c1ccc2c(c1)nnn2C)c1nc(-c2ccncc2)nc2ccccc12 [AMR.471],> 200

row,Compound,IC50 [µM]
1,c1cncc(-c2nc(NCCCn3ccnc3)c3ccccc3n2)c1 [AMR.322],> 200
2,CN(C)c1cccc(Nc2nc(-c3ccc(Cl)cc3Cl)nc3ccccc23)c1 [AMR.403],41.1
3,Cc1ccc(S(=O)(=O)NNc2nc(-c3ccccc3Cl)nc3ccccc23)cc1 [AMR.400],> 200
4,Fc1cc(Nc2nc(-c3ccncc3)nc3ccccc23)c(F)cc1Br [AMR.455],15.3
5,Fc1ccc(Nc2nc(-c3ccncc3)nc3ccccc23)cc1 [AMR.353],> 200
6,O=[N+]([O-])c1cc(Nc2nc(-c3ccncc3)nc3ccccc23)ccc1O [AMR.458],5.8
7,CCOC(=O)c1ccc(Nc2cc(-c3cccnc3)nc3ccccc23)cc1 [AMR.504],76
8,O=[N+]([O-])c1ccc(F)c(Nc2ncnc3ccccc23)c1 [AMR.475],> 200
9,CN(C)c1cccc(Nc2nc(-c3ccc(Cl)cc3)nc3ccccc23)c1 [AMR.380],157
10,c1ccc(-c2nc(Nc3ccc4[nH]nnc4c3)c3ccccc3n2)nc1 [AMR.422],3.2
11,c1ccc2c(NCCCn3ccnc3)nc(-c3ccncc3)nc2c1 [AMR.347],> 200
12,O=[N+]([O-])c1ccc(F)c(Nc2nc(-c3ccc(Cl)cc3)nc3ccccc23)c1 [AMR.366],> 200
13,Fc1cc(Nc2nc(-c3cccnc3)nc3ccccc23)c(F)cc1Br [AMR.483],16.1
14,CN(C)c1cccc(Nc2nc(-c3ccncc3)nc3ccccc23)c1 [AMR.381],130
15,Clc1ccc(Cl)c(Nc2nc(-c3cccnc3)nc3ccccc23)c1 [AMR.345],22
16,COc1ccc(Nc2nc(-c3ccc(Cl)cc3)nc3ccccc23)cc1OC [AMR.363],54.8
17,Cn1nnc2cc(Nc3nc(-c4ccc([N+](=O)[O-])cc4)nc4ccccc34)ccc21 [AMR.437],50.9
18,CN(C)c1ccc(Nc2nc(-c3cccnc3)nc3ccccc23)cc1 [AMR.378],> 200
19,CN(C)c1ccc(Nc2nc(-c3ccncc3)nc3ccccc23)cc1 [AMR.351],15.4
20,Clc1ccc(Cl)c(Nc2nc(-c3ccncc3)nc3ccccc23)c1 [AMR.352],191
